Measurements reported in the supplement of paper PMC11208160.

Assay: recombinant barcode read abundance after kanamycin selection (control-corrected) (log10(CPM+1)); higher = more efficient recombination; sequences stand for … in AGTGCAGAGAAAATCGGCCAGTTTTCTCTGCCTGCAGTCCGCATGCCGT…AGATTTATGCAGCGGACTGCCTTTCTCCCAAAGTGATAAACCGGACAGTATCATGGACCGGTTTTCCCGGTAATCCGTATTTGCAAGGTTGGTTTCACT; site = the 11-nt target
In short: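 Two replicates per condition were plated: chloramphenicol/ampicillin LB agar for the control, and chloramphenicol/ampicillin/kanamycin with 0.1 mM IPTG for selection. The pooled E. coli screen behind them paired targets with IS621 bridge RNA target-binding loops. Recombination efficiency is expressed from averaged, control-corrected barcode counts per million at recombinant junctions, as log10(CPM+1).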
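Also: IS621 recombinase and bridge RNA in Escherichia coli cells.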

| Sequence | recombinant barcode read abundance (log10) |
| --- | --- |
| CGCCCTCCTTGGGTTCTAACCTGTTGCAT (site CGCCATCCTAT) | 0.0837 |
| CGCCCTCCTTGGGTTCTAACCTGTTGCAT (site CGCCCTCCTAT) | 0.362 |
| CGCCCTCCTTGGGTTCTAACCTGTTGCAT (site CGCCGTCCTAT) | 0.117 |
| CGCCCTCCTTGGGTTCTAACCTGTTGCAT (site CGCCTTCCTAT) | 0.0322 |
| CGCCGCCCTTGGGTTCTAACCTGTTGCCT (site AGCCGCCCTAT) | 0.447 |
| CGCCGCCCTTGGGTTCTAACCTGTTGCCT (site CGCCGCCCTAG) | 0.18 |
| CGCCTCTCTTGGGTTCTAACCTGTTGCCT (site CGCCTCACTAG) | 0.0921 |
| CGCCTCTCTTGGGTTCTAACCTGTTGCCT (site CGCCTCCCTAG) | 0.211 |
| CGCCTCTCTTGGGTTCTAACCTGTTGCCT (site CGCCTCGCTAG) | 0.307 |
| CGCCTCTCTTGGGTTCTAACCTGTTGCCT (site CGCCTCTCTAG) | 0.0707 |
| CGCGAATCTTGGGTTCTAACCTGTTGCTT (site CGCGAATCTAA) | 0.0373 |
| CGCGAATCTTGGGTTCTAACCTGTTGCTT (site CGCGGGTCTAA) | 0.168 |
| CGCGCGGCTTGGGTTCTAACCTGTTGCCT (site CGCGCGGCTAG) | 0.251 |
| CGCGCGGCTTGGGTTCTAACCTGTTGCCT (site CGCGGGGCTAG) | 0.266 |
| CGCGGTTCTTGGGTTCTAACCTGTTGCCT (site CGAGGTTCTAG) | 0.339 |
| CGCGGTTCTTGGGTTCTAACCTGTTGCCT (site CGCGGTTCTAG) | 0.0855 |
| CGCGTTGCTTGGGTTCTAACCTGTTGCCT (site AAGCCCACTCC) | 0.0136 |
| CGCGTTGCTTGGGTTCTAACCTGTTGCCT (site CGCGTTGCTAG) | 0.48 |
| CGCTCGTCTTGGGTTCTAACCTGTTGCCT (site CGCTAGTCTAG) | 0.0163 |
| CGCTCGTCTTGGGTTCTAACCTGTTGCCT (site CGCTCGTCTAG) | 0.00559 |
| CGCTCGTCTTGGGTTCTAACCTGTTGCCT (site CGCTGGTCTAG) | 0.0376 |
| CGCTCGTCTTGGGTTCTAACCTGTTGCCT (site CGCTTGTCTAG) | 0.163 |

| Sequence | recombinant barcode read abundance (log10) |
| --- | --- |
| CGCTGTCCTTGGGTTCTAACCTGTTGCTT (site CGCTGACCTAA) | 0.156 |
| CGCTGTCCTTGGGTTCTAACCTGTTGCTT (site CGCTGCCCTAA) | 0.148 |
| CGCTGTCCTTGGGTTCTAACCTGTTGCTT (site CGCTGGCCTAA) | 0.348 |
| CGCTGTCCTTGGGTTCTAACCTGTTGCTT (site CGCTGTCCTAA) | 0.176 |
| CGGAACCCTTGGGTTCTAACCTGTTGCCG (site CGGAACCCTCG) | 1.22 |
| CGGAACCCTTGGGTTCTAACCTGTTGCCG (site CGGAGCCCTTG) | 0.11 |
| CGGAAGACTTGGGTTCTAACCTGTTGCCT (site CGGAAGACTAG) | 1.98 |
| CGGAAGACTTGGGTTCTAACCTGTTGCCT (site CGGAAGCCTAG) | 0.121 |
| CGGAAGACTTGGGTTCTAACCTGTTGCCT (site CGGAAGGCTAG) | 0.537 |
| CGGAAGACTTGGGTTCTAACCTGTTGCCT (site CGGAAGTCTAG) | 0.516 |
| CGGAAGCCTTGGGTTCTAACCTGTTGCCT (site CGGAAGACTAG) | 0.0744 |
| CGGAAGCCTTGGGTTCTAACCTGTTGCCT (site CGGAAGCCTAG) | 1.74 |
| CGGAAGCCTTGGGTTCTAACCTGTTGCCT (site CGGAAGGCTAG) | 0.0821 |
| CGGAAGCCTTGGGTTCTAACCTGTTGCCT (site CGGAAGTCTAG) | 0.818 |
| CGGAAGGCTTGGGTTCTAACCTGTTGCCT (site CGGAAGACTAG) | 0.036 |
| CGGAAGGCTTGGGTTCTAACCTGTTGCCT (site CGGAAGCCTAG) | 0.0918 |
| CGGAAGGCTTGGGTTCTAACCTGTTGCCT (site CGGAAGGCTAG) | 0.89 |
| CGGAAGGCTTGGGTTCTAACCTGTTGCCT (site CGGAAGTCTAG) | 0.401 |
| CGGAATCCTTGGGTTCTAACCTGTTGCGT (site CGGAATCCTAA) | 0.159 |
| CGGAATCCTTGGGTTCTAACCTGTTGCGT (site CGGAATCCTAC) | 2.33 |
| CGGAATCCTTGGGTTCTAACCTGTTGCGT (site CGGAATCCTAG) | 0.345 |
| CGGAATCCTTGGGTTCTAACCTGTTGCGT (site CGGAATCCTAT) | 1.19 |

| Sequence | recombinant barcode read abundance (log10) |
| --- | --- |
| CGGACGTCTTGGGTTCTAACCTGTTGCTG (site CGGACGTCTCA) | 1.69 |
| CGGACGTCTTGGGTTCTAACCTGTTGCTG (site CGGGCGTCTAA) | 0.0605 |
| CGGACTGCTTGGGTTCTAACCTGTTGCCT (site ACCTGACCTCC) | 0.0853 |
| CGGACTGCTTGGGTTCTAACCTGTTGCCT (site CGGACTGCTAG) | 0.374 |
| CGGAGCCCTTGGGTTCTAACCTGTTGCCA (site CGGAACCCTCG) | 0.0889 |
| CGGAGCCCTTGGGTTCTAACCTGTTGCCA (site CGGAGCCCTTG) | 0.883 |
| CGGAGTCCTTGGGTTCTAACCTGTTGCTA (site CGGAGTCCTTA) | 0.774 |
| CGGAGTCCTTGGGTTCTAACCTGTTGCTA (site CGGCGTCCTTA) | 0.113 |
| CGGAGTCCTTGGGTTCTAACCTGTTGCTA (site CGGGGTCCTTA) | 0.0775 |
| CGGAGTCCTTGGGTTCTAACCTGTTGCTA (site CGGTGTCCTTA) | 0.102 |
| CGGCAGTCTTGGGTTCTAACCTGTTGCGT (site CGACAGTCTAC) | 2.34 |
| CGGCAGTCTTGGGTTCTAACCTGTTGCGT (site CGGCAGTCTAC) | 2.6 |
| CGGCCCTCTTGGGTTCTAACCTGTTGCCT (site CAGCCCTCTAG) | 1.23 |
| CGGCCCTCTTGGGTTCTAACCTGTTGCCT (site CCGCCCTCTAG) | 0.29 |
| CGGCCCTCTTGGGTTCTAACCTGTTGCCT (site CGGCCCTCTAG) | 2.52 |
| CGGCCCTCTTGGGTTCTAACCTGTTGCCT (site CTGCCCTCTAG) | 0.185 |
| CGGCCGACTTGGGTTCTAACCTGTTGCGG (site CGGCCGACTCC) | 2.36 |
| CGGCCGACTTGGGTTCTAACCTGTTGCGG (site CGGGCGCCTCC) | 0.184 |
| CGGCTATCTTGGGTTCTAACCTGTTGCCT (site CGGCTATCTAG) | 0.194 |
| CGGCTATCTTGGGTTCTAACCTGTTGCCT (site TGGCTATCTAG) | 0.0495 |
| CGGCTCACTTGGGTTCTAACCTGTTGCCT (site CGGCTCACTAG) | 1.66 |
| CGGCTCACTTGGGTTCTAACCTGTTGCCT (site CGGCTGACTAG) | 0.123 |
